For the assay, the system named is human venous whole blood, CD8 positive population (pERK). Briefly: DGK human whole blood pERK assay. It counts as cell-based. The protocol:
Assay 11: DGK Human Whole Blood pERK Assay
Human whole blood ERK phosphorylation assay was performed with human venous whole blood obtained from healthy donors (drawn with Heparin as anti-coagulant). […] Heparinized human whole blood was added to the compound plate at 9 μL per well and incubated for one hour at 37° C. in a humidified 95%, air/5% CO2 incubator. After one hour of compound incubation, 1 μL of human anti-CD3 antibody (in-house) in the presence of cross-linking antibody goat anti-mouse IgG (4 μg/mL) was added to the well at 1 μg/mL final concentration for stimulation of pathway and additionally incubated for 15 minutes at 37° C. […] Samples analyzed using the Intellicyt® iQue Screener PLUS. The pERK activation was quantitated by the percentage of pERK positive population within CD8 positive population.

Setting [1] is: Homo sapiens, CD8 positive, read-out: DGK HWB, human whole blood pERK.
Setting [2] is: Homo sapiens, CD8 positive, human whole blood pERK, read-out: DGK HWB.
[3] abbreviates: human whole blood pERK, read-out: DGK HWB.

Like-named read-outs stand apart in the source and are kept apart here.

As to `CC(C)Oc1ccc(OC2C[C@H](C)N(c3nc(=O)n(C)c4ccc(C#N)nc34)C[C@@H]2C)nc1` (mixture of isomers) [Example 243, (±)-Cis-(-4-((5-isopropoxypyridin-2-yl)oxy)-2,5-dimethylpiperidin-1-yl)-1-methyl-2-oxo-1,2-dihydropyrido[3,2-d]pyrimidine-6-carbonitrile], the EC50 under setting [1] worked out at 590 nM. With `CCO[C@H]1CN(c2cc(=O)n(C)c3ccc(C#N)nc23)CC[C@@H]1Oc1ccccc1` (relative stereo) [Example 341, trans-8-(3-Ethoxy-4-phenoxypiperidin-1-yl)-5-methyl-6-oxo-5,6-dihydro-1,5-naphthyridine-2-carbonitrile], the EC50 under setting [2] came to 590 nM. Consider `CCO[C@H]1CN(c2cc(=O)n(C)c3ccc(C#N)nc23)CC[C@@H]1Oc1ccccc1` (relative stereo) [Example 342, trans-8-(3-Ethoxy-4-phenoxypiperidin-1-yl)-5-methyl-6-oxo-5,6-dihydro-1,5-naphthyridine-2-carbonitrile], for which the EC50 under setting [3] worked out at 840 nM. Still for that read-out and setting: the figure for `CCO[C@H]1CN(c2cc(=O)n(C)c3ccc(C#N)nc23)CC[C@@H]1Oc1cccc(C(F)(F)F)n1` (relative stereo) [Example 363, trans-8-(3-Ethoxy-4-((6-(trifluoromethyl)pyridin-2-yl)oxy)piperidin-1-yl)-5-methyl-6-oxo-5,6-dihydro-1,5-naphthyridine-2-carbonitrile] is 1100 nM; for `CCO[C@H]1CN(c2cc(=O)n(C)c3ccc(C#N)nc23)CC[C@@H]1Oc1cccc(C(F)(F)F)n1` (relative stereo) [Example 364, trans-8-(3-Ethoxy-4-((6-(trifluoromethyl)pyridin-2-yl)oxy)piperidin-1-yl)-5-methyl-6-oxo-5,6-dihydro-1,5-naphthyridine-2-carbonitrile] it is 20000 nM. Turning to `CCO[C@H]1CN(c2cc(=O)n(C)c3ccc(C#N)nc23)CC[C@@H]1Oc1ccc(C(F)(F)F)cn1` (relative stereo) [Example 367, trans-8-(3-Ethoxy-4-((5-(trifluoromethyl)pyridin-2-yl)oxy)piperidin-1-yl)-5-methyl-6-oxo-5,6-dihydro-1,5-naphthyridine-2-carbonitrile], under setting [1], the EC50 was 640 nM. Regarding `CCO[C@H]1CN(c2cc(=O)n(C)c3ccc(C#N)nc23)CC[C@H]1Oc1cccc(C(F)(F)F)c1` (relative stereo) [Example 369, cis-8-(3-Ethoxy-4-(3-(trifluoromethyl)phenoxy)piperidin-1-yl)-5-methyl-6-oxo-5,6-dihydro-1,5-naphthyridine-2-carbonitrile], the EC50 under setting [2] turned out to be 620 nM. With `CCO[C@H]1CN(c2cc(=O)n(C)c3ccc(C#N)nc23)CC[C@H]1Oc1ccc(OC(C)C)cn1` (relative stereo) [Example 371, cis-8-(3-Ethoxy-4-((5-isopropoxypyridin-2-yl)oxy)piperidin-1-yl)-5-methyl-6-oxo-5,6-dihydro-1,5-naphthyridine-2-carbonitrile], the EC50 under setting [3] was found to be 3600 nM. Still for that read-out and setting: the figure for `CCO[C@H]1CN(c2cc(=O)n(C)c3ccc(C#N)nc23)CC[C@H]1Oc1ccc(OC(C)C)cn1` (relative stereo) [Example 372, cis-8-(3-Ethoxy-4-((5-isopropoxypyridin-2-yl)oxy)piperidin-1-yl)-5-methyl-6-oxo-5,6-dihydro-1,5-naphthyridine-2-carbonitrile] is 18000 nM. On to `CCO[C@H]1CN(c2cc(=O)n(C)c3ccc(C#N)nc23)CC[C@@H]1Oc1ccc(OC(C)C)cn1` (relative stereo) [Example 397, trans-8-(4-((5-Isopropoxypyridin-2-yl)oxy)-3-ethoxypiperidin-1-yl)-5-methyl-6-oxo-5,6-dihydro-1,5-naphthyridine-2-carbonitrile], for which the EC50 (human whole blood, CD8 positive population, anti-CD3 stimulation, top concentration 20 μM, read-out: DGK HWB (human whole blood pERK)) was found to be 140 nM. For the molecule `CC1CN(c2c(C#N)c(=O)n(C)c3ccc(C#N)nc23)CCC1N(C)C(=O)c1ccc(C(F)(F)F)cc1` (single isomer, unassigned) [Example 292, N-(1-(3,6-dicyano-1-methyl-2-oxo-1,2-dihydro-1,5-naphthyridin-4-yl)-3-methylpiperidin-4-yl)-N-methyl-4-(trifluoromethyl)benzamide], the EC50 under setting [1] stood at 20000 nM.

For the origin of these results see US11964973B2 (priority 2019, dated 2024).
